The values that follow are results of earlier work, collected in patent US6361800B1 (Cooper Concepts, Inc., priority 2000, dated 2002).

For the data set the following is noted: 100 I.U. taken for two years or longer.

Where two headings read alike, the source gives them in different places.

As for vitamin E, the “reduced deaths of coronary artery disease” value reads like this: (39,910 male health professionals) 37%; (87,245 nurses) 40%.
